The subject of one data set is MCF-7 cells. The data set is described as follows: Cellular proliferation EdU assay, MCF-7. It is filed as cell-based. The settings on record: Homo sapiens, MCF7, 48 h, read-out: MCF-7 IC50. How it is done:
(§1) Compounds were tested to assess inhibition of cellular proliferation in the breast cancer cell line MCF-7 and the CCNE1-amplified ovarian cell line OVCAR3.
(§2) MCF-7 and OVCAR3 cells in RPMI supplemented with 10% Fetal bovine serum were seeded into 384-well plates (Greiner, Kremsmunster, Austria; 781091), 30 μL/well, using a WellMate. The MCF7 and OVCAR3 cells were seeded at 800 and 1200 cells/well, respectively. Test compounds were added to the wells using an Echo 555 liquid handler and the plates were placed in incubator maintained at 37° C. and 5% CO2 and incubated for two days. On Day 2, an EdU assay was performed following the manufacturer's protocol (Thermo Fisher, C10351). The cells were read on an Acumen eX3 instrument. The IC50 values of test compounds were determined in Genedata by assessing the ratio of signal intensity at 488 nm to the area of signal at 405 nm.

Data set [1] deals with POLR2A Ser2 phosphorylation (CDK9). The data set is described as follows: POLR2A Ser2 phosphorylation imaging assay in MCF-7 cells. It is filed as cell-based. To be noted: Homo sapiens, MCF7, 2 h, read-out: POLR2A Ser2 phosphorylation IC50. How it is done:
Compounds were tested to assess their effect on CDK9 activity in a cellular context. […] During the cell cycle, CDK9 is a component of a multiprotein complex that phosphorylates POLR2A Ser2 which results in transcription elongation.
[…] were fixed by addition of 40 μL/well of 8% paraformaldehyde and incubated for 10 minutes at room temperature. The plates were washed three times with 50 μL/well PBS using a Biotek EL406 plate washer and then permeabilized for 10 minutes at room temperature in 0.3% Triton X100 in PBS. After washing as before, the plates were blocked using 30 μL/well of 2% BSA (w/v) in PBS-T for over 30 minutes at room temperature. […] After washing in PBS as before, leaving each well in 40 μL of PBS, the plates were sealed and imaged on a Cell Insight imaging system (Thermo) with a 10× objective and 2 fields of view per well. POLR2A Ser2levels were normalized to controls and the IC50 values of test compounds determined using Genedata Screener software.

Data set [2] in a line: Aqueous thermodynamic solubility, shake-flask. In kind it is physicochemical. To be noted: aqueous phosphate buffer, 25 °C, pH 7.4, aqueous buffer, thermodynamic from solid, phosphate buffer 0.1 M, pH 7.4, 24 hours. How it is done:
The DMSO was evaporated and the dried compounds were equilibrated in glass vials in aqueous phosphate buffer (0.1 M, pH 7.4) for 24 hours at 25° C. under constant stirring. The portion with the dissolved compound was then separated from the remainder through a double centrifugation with a tip wash in between to ensure that no residues of the dried compound were interfering. The solutions were diluted with purified water before quantification using UPLC/MS/MS.

A further data set has as its system OVCAR3 cells. In words: Cellular proliferation EdU assay, OVCAR3. It is filed as cell-based, human. To be noted: Homo sapiens, OVCAR-3, 48 h, read-out: OVCAR3 IC50. How it is done:
as §1, §2

A further data set concerns the target CDK4:CCND1 (Homo sapiens (Human), UniProt P11802). In words: NanoBRET assay in MCF-7 cells, CDK4. It is filed as cell-based. To be noted: CDK4 IC50, NanoBRET, transfected MCF-7 cells, 2 hours; n = 1 or average. How it is done:
(§3) Compounds were tested in breast cancer cell line MCF-7 to assess inhibition of CDK1, CDK2, and CDK4 activity. MCF-7 cells transiently transfected with CDK1:CCNB1, CDK2:CCNE1, or CDK4:CCND1 were harvested at a density of 1E5 cells/mL in complete media, seeded 20 μL/well into 384-well Greiner 784080 plates using a Multidrop Combi, and incubated overnight at 37° C. and 5% CO2. The next day media were evacuated from the wells using the Bluewasher centrifugal plate washer (Bluecatbio) and 10 μL/well phenol red free OptiMEM was then added using a Multidrop Combi. […] Immediately after compound addition, a Tecan HP300 dispensor was used to dispense the relevant NanoBRET™ tracer to the CDK1 wells (12.5 nl, 400 μM, NanoBRET™ TE Tracer K-9), the CDK2 wells (12.5 nl, 200 μM, NanoBRET™ TE Tracer K-9), and the CDK4 wells (8 nl, 100 μM, NanoBRET™ TE Tracer K-7) and the plates were incubated for 2 hours at 37° C. and 5% CO2. The plates were allowed to cool for 10 minutes at room temperature and 5 μL/well of TE Nano-Glo®Substrate/Inhibitor at 2.4 μM and 1:500 respectively (N2162 Promega) was added. The plates were incubated in subdued lighting for 10 minutes and then read on a Pherastar FS plate reader (BMG Technologies) using a NanoBRET™ filter module (460±80 nm/610 nm-LP). The ratio values were normalized to controls and the IC50 values of test compounds determined using Genedata Screener software.

The next data set addresses CDK2:CCNE1 (Homo sapiens (Human), UniProt P24941). In words: NanoBRET assay in MCF-7 cells, CDK2. In kind it is cell-based. The settings on record: transfected MCF-7 cells, 2 hours, n = 1 or average. How it is done:
as §3, with “MCF-7 cells transiently transfected with CDK1:CCNB1, CDK2:CCNE1, or CDK4:CCND1 were harvested at a density of 1E5 cells/mL in complete media, seeded 20 μL/well into 384-well Greiner 784080 plates using a Multidrop Combi, and incubated overnight at 37° C. and 5% CO2.” left out, “The plates were allowed to cool for 10 minutes at room temperature and 5 μL/well of TE Nano-Glo®Substrate/Inhibitor at 2.4 μM and 1:500 respectively (N2162 Promega) was added.” left out
On the technique in general: Bioluminescence resonance energy transfer reports proximity on the nanometre scale.

The next data set concerns the target CDK1:CCNB1 (Homo sapiens (Human), UniProt P06493). In words: NanoBRET assay in MCF-7 cells, CDK1. In kind it is cell-based. To be noted: CDK1 IC50, NanoBRET, transfected MCF-7 cells, 2 hours; n = 1 or average. How it is done:
as §3

Data set [3] has as its system NPM phosphorylation (Thr199, CDK2-cyclin E complex). The data set is described as follows: NPM phosphorylation imaging assay in MCF-7 cells. To be noted: Homo sapiens, MCF7, 2 hours, 4N DNA cells. In kind it is cell-based. How it is done:
Compounds were tested to assess the effects of CDK2 inhibition in a cellular context. […] During the cell cycle, the CDK2-cyclin E complex phosphorylates NPM at Thr199 which is a prerequisite step for initiation of centrosome duplication.
The cells were fixed by addition of 40 μL/well of 8% paraformaldehyde and incubated at room temperature for 10 minutes. The plates were washed three times with 50 μL/well PBS using a Biotek EL406 plate washer and then permeabilized for 10 minutes at room temperature in 0.3% Triton X100 in PBS. After washing as before, the plates were blocked using 30 μL/well of 2% BSA (w/v) in PBS-T for at least 30 minutes at room temperature. […] Cells containing 4N DNA were selected using the Hoechst staining. Phospho-NPM levels were normalized to controls and the IC50 values of test compounds determined using Genedata Screener software.

In brackets after ≈: the same amount, converted by molar mass. Where two headings read alike, the source gives them in different places.

Sequence of CDK4:CCND1 (P11802 whole entry): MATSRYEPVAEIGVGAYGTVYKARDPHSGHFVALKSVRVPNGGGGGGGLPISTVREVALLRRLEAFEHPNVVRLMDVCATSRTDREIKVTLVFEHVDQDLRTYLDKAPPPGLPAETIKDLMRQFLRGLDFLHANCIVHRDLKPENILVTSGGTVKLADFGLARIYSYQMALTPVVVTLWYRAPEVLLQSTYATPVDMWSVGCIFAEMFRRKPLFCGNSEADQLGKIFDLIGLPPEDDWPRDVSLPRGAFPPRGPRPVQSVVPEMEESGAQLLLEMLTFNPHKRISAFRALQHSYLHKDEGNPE
Sequence of CDK4:CCND1 (P24385 whole entry partner): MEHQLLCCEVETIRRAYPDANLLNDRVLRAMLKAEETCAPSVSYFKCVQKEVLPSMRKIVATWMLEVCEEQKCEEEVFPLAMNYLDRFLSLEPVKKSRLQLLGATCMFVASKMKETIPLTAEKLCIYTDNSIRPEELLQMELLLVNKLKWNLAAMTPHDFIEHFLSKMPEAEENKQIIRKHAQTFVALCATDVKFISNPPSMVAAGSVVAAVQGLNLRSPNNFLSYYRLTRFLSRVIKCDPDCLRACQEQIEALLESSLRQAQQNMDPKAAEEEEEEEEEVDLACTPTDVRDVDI
Sequence of CDK1:CCNB1 (P06493 whole entry): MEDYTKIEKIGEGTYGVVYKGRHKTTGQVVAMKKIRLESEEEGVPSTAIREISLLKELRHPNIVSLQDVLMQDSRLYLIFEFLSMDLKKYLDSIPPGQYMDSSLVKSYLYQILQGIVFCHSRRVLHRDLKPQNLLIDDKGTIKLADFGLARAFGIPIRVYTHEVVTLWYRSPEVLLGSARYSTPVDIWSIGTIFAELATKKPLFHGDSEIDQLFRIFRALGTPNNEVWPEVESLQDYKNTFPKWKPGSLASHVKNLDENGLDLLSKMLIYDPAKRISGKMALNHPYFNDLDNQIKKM
Sequence of CDK1:CCNB1 (P14635 whole entry partner): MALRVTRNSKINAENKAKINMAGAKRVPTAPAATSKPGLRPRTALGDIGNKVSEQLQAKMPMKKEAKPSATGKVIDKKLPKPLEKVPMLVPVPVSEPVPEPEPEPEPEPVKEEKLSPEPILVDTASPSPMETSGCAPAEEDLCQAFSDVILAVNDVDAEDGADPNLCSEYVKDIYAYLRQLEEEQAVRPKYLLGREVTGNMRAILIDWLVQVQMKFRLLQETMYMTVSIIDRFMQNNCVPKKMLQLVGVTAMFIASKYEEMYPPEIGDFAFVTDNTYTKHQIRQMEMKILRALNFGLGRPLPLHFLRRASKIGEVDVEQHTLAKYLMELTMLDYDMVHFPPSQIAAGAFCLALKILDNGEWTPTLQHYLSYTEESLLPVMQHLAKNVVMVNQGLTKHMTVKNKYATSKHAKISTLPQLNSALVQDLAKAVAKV

For the molecule `CC[C@H](Nc1nc(N[C@H]2CCN(S(=O)(=O)N[C@H]3CCOC3)C2)c2ncn(CC)c2n1)[C@@H](C)O` [Example 22, (S)-3-((9-ethyl-2-(((2R,3S)-2-hydroxypentan-3-yl)amino)-9H-purin-6-yl)amino)-N—((S)-tetrahydrofuran-3-yl)pyrrolidine-1-sulfonamide], the IC50 (usually the concentration at which inhibition is half-maximal) with MCF-7 cells (EdU assay, two days) was 1440 nM; in data set [1] (MCF-7 cells, 2 hours) it was greater than 30 µM; in the data set with OVCAR3 cells (EdU assay, two days) it was 298 nM. The solubility (as a rule, how much of the substance goes into solution per volume) at 24 h in data set [2] is greater than 1000 µM.

Take `CC[C@H](Nc1nc(N[C@H]2CCN(S(=O)(=O)N3CC(F)C3)C2)c2ncn(CC)c2n1)[C@@H](C)O` [Example 24, (2R,3S)-3-((9-ethyl-6-(((S)-1-((3-fluoroazetidin-1-yl)sulfonyl)pyrrolidin-3-yl)amino)-9H-purin-2-yl)amino)pentan-2-ol]: the IC50 with MCF-7 cells (EdU assay, two days) was 2930 nM; in data set [1] (MCF-7 cells, 2 hours), greater than 30 µM; in the data set on OVCAR3 cells (EdU assay, two days), 856 nM. Further, in data set [2], the solubility at 24 h amounted to 466 µM (≈ 219 µg/mL).

Turning to `CCNS(=O)(=O)N1CC[C@H](Nc2nc(N[C@@H](CC)C(C)=O)nc3c2ncn3CC)C1` [Example 7, (S)—N-ethyl-3-((9-ethyl-2-(((S)-2-oxopentan-3-yl)amino)-9H-purin-6-yl)amino)pyrrolidine-1-sulfonamide], the IC50 in the data set with MCF-7 cells was determined as 486 nM; in data set [1], 24.2 µM; against CDK4:CCND1, 19.1 µM; at CDK2:CCNE1 it was 13 nM; against CDK1:CCNB1 it was 591 nM; with OVCAR3 cells, 203 nM. This molecule also yielded a solubility at 24 h in data set [2] of 220 µM (≈ 96.5 µg/mL).

Regarding `CC[C@H](Nc1nc(N[C@H]2CCN(S(=O)(=O)NC)C2)c2ncn(C(F)F)c2n1)[C@@H](C)O` [Example 55, (S)-3-((9-(difluoromethyl)-2-(((2R,3S)-2-hydroxypentan-3-yl)amino)-9H-purin-6-yl)amino)-N-methylpyrrolidine-1-sulfonamide], the IC50 came to 514 nM in the data set with MCF-7 cells (EdU assay, two days); 14.4 µM in data set [1] (MCF-7 cells, 2 hours); 142 nM in data set [3]; 147 nM in the data set with OVCAR3 cells (EdU assay, two days). The molecule also came in with a solubility at 24 h in data set [2] greater than 1000 µM.

As for `CCNS(=O)(=O)N1CC[C@H](Nc2nc(N[C@H](CC)C(C)=O)nc3c2ncn3CC)C1` [Example 12, (S)—N-ethyl-3-((9-ethyl-2-(((R)-2-oxopentan-3-yl)amino)-9H-purin-6-yl)amino)pyrrolidine-1-sulfonamide], the IC50 with MCF-7 cells is 3400 nM; in data set [1] it was greater than 30 µM; against CDK4:CCND1 it was greater than 29.7 µM; against CDK2:CCNE1 it was 88 nM; against CDK1:CCNB1, 7480 nM; in the data set with OVCAR3 cells, 1560 nM. The molecule also yielded a solubility at 24 h in data set [2] of 955 µM (≈ 419 µg/mL).

Take `CC[C@H](Nc1nc(N[C@H]2CCN(S(=O)(=O)NC)C2)c2ncn(CC)c2n1)C(C)=O` [Example 45, (S)-3-((9-ethyl-2-(((S)-2-oxopentan-3-yl)amino)-9H-purin-6-yl)-amino)-N-methylpyrrolidine-1-sulfonamide]: the IC50 was 944 nM in the data set on MCF-7 cells (EdU assay, two days); greater than 26.7 µM in data set [1] (MCF-7 cells, 2 hours); greater than 29.7 µM at CDK4:CCND1; 39 nM against CDK2:CCNE1; 1890 nM against CDK1:CCNB1; 359 nM with OVCAR3 cells (EdU assay, two days).

In the case of `CCNS(=O)(=O)N1CC[C@H](Nc2nc(N[C@@H](CC)[C@H](C)O)nc3c2ncn3CC)C1` [Example 8, (S)—N-ethyl-3-((9-ethyl-2-(((2S,3S)-2-hydroxypentan-3-yl)amino)-9H-purin-6-yl)amino)pyrrolidine-1-sulfonamide], the IC50 was 4770 nM in the data set on MCF-7 cells (EdU assay, two days); greater than 30 µM in data set [1]; 1580 nM in the data set on OVCAR3 cells (EdU assay, two days).

Take `CCNS(=O)(=O)N1CC[C@H](Nc2nc(N[C@H](CC)[C@H](C)O)nc3c2ncn3CC)C1` [Example 11, (S)—N-ethyl-3-((9-ethyl-2-(((2S,3R)-2-hydroxypentan-3-yl)amino)-9H-purin-6-yl)amino)pyrrolidine-1-sulfonamide]: the concentration for half-maximal inhibition (IC50) in the data set on MCF-7 cells (EdU assay, two days) is 3300 nM; in data set [1], greater than 30 µM; in the data set on OVCAR3 cells (EdU assay, two days), 1400 nM.

As to `CC[C@H](Nc1nc(N[C@H]2CCN(S(=O)(=O)N[C@@H]3CCOC3)C2)c2ncn(CC)c2n1)[C@@H](C)O` [Example 18, (S)-3-((9-ethyl-2-(((2R,3S)-2-hydroxypentan-3-yl)amino)-9H-purin-6-yl)amino)-N—((R)-tetrahydrofuran-3-yl)pyrrolidine-1-sulfonamide], the IC50 turned out to be 23.6 µM in data set [1] (MCF-7 cells, 2 hours) and 169 nM in the data set on OVCAR3 cells (EdU assay, two days). This molecule yielded a solubility at 24 h in data set [2] of 726 µM (≈ 350 µg/mL).

`CC[C@H](Nc1nc(N[C@H]2CCN(S(=O)(=O)NCC(F)F)C2)c2ncn(CC)c2n1)[C@@H](C)O` [Example 5, (S)—N-(2,2-difluoroethyl)-3-((9-ethyl-2-(((2R,3S)-2-hydroxypentan-3-yl)amino)-9H-purin-6-yl)amino)pyrrolidine-1-sulfonamide]: the IC50 was 917 nM in the data set with MCF-7 cells (EdU assay, two days); greater than 30 µM in data set [1] (MCF-7 cells, 2 hours); 154 nM in the data set on OVCAR3 cells (EdU assay, two days). The molecule also had a solubility at 24 h in data set [2] greater than 1000 µM.

For `CCNS(=O)(=O)N1CC[C@H](Nc2nc(N[C@H](CC)[C@@H](C)O)nc3c2ncn3CC)C1` (mixture of isomers) [Example 13, (S)—N-ethyl-3-((9-ethyl-2-(((2R,3R)-2-hydroxypentan-3-yl)amino)-9H-purin-6-yl)amino)pyrrolidine-1-sulfonamide], the IC50 is 490 nM in the data set with MCF-7 cells (EdU assay, two days); greater than 30 µM in data set [1]; 202 nM with OVCAR3 cells (EdU assay, two days).

These data come from patent publication US20250197425A1, “2,6,9-TRISUBSTITUTED PURINES” (ASTRAZENECA AB, priority 2022, published 2025).
